pIC50: −log10 of the molar value.
Columns and labels:
[1] = target: T1, Aurora-A kinase (Homo sapiens, UniProt O14965); assay: In vitro Aurora-A kinase inhibition test; type: biochemical
T1 construct: 6His (with spacer region and rTEV protease cleavage site from pFastBac HTc) (N); made in house; host or cells: Spodoptera frugiperda Sf21 insect cells (baculovirus, pFastBac HTc)
T1 sequence (O14965 1-403): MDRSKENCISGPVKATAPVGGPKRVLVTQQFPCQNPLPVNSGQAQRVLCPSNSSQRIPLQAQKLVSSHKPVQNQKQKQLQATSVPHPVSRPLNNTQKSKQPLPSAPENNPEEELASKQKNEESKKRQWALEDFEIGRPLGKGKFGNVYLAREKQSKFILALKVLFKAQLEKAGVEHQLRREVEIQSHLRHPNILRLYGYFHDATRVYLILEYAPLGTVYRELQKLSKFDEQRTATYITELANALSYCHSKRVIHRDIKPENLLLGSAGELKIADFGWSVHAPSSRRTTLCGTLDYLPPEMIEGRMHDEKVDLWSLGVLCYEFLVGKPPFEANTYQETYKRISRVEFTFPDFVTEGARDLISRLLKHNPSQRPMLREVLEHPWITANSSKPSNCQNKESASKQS

[2] = test system: SW620 cells; assay: In vitro cell proliferation assay (BrdU incorporation); type: cell-based; conditions: SW-620; SW620 human tumour cell line, 48 hours with compound, 2 hour BrdU labelling; read-out: concentration active (50% inhibition of BrdU incorporation)
Description: (c) In Vitro Cell Proliferation Assay
This and other assays can be used to determine the ability of a test compound to inhibit the growth of adherent mammalian cell lines, for example the human tumour cell line SW620 (ATCC CCL-227). This assay determines the ability of at test compound to inhibit the incorporation of the thymidine analogue, 5′-bromo-2′-deoxy-uridine (BrdU) into cellular DNA. SW620 or other adherent cells were typically seeded at 1×10^5 cells per well in L-15 media (GIBCO) plus 5% foetal calf serum, 1% L-glutamine (100 μl/well) in 96 well tissue culture treated 96 well plates (Costar) and allowed to adhere overnight. […] The optical density of the wells was then determined at 690 nm wavelength using a Titertek Multiscan plate reader. […]

COc1cc2c(Nc3cc(CC(=O)Nc4cccc(F)c4)[nH]n3)ncnc2cc1OCCCN1CCC[C@H]1CO [Compound 8, N-(3-fluorophenyl)-2-{3-[(7-{3-[(2S)-2-(hydroxymethyl)pyrrolidin-1-yl]propoxy}-6-methoxyquinazolin-4-yl)amino]-1H-pyrazol-5-yl}acetamide]
pIC50 [1]: 8.00 | pIC50 [2]: 7.07

COc1cc2c(Nc3cc(CC(=O)Nc4cccc(F)c4)[nH]n3)ncnc2cc1OCCCN(C)CCO [Compound 13, N-(3-fluorophenyl)-2-{3-[(7-{3-[(2-hydroxyethyl)(methyl)amino]propoxy}-6-methoxyquinazolin-4-yl)amino]-1H-pyrazol-5-yl}acetamide]
pIC50 [1]: 9.00 | pIC50 [2]: 7.10

From patent US7402585B2, “Substituted quinazoline derivatives as inhibitors of aurora kinases” (AstraZeneca AB, priority 2001, dated 2008)
